Experimental data as given in patent US20090022720A1, “Conjugate of an antibody against CD4 and antifusogenic peptides” (priority 2007, published 2009).

How the values were obtained:
NL-BAL = assay: Antiviral activity assay in peripheral blood mononuclear cells (PBMC), p24 ELISA, NL-BAL; assay type: cell-based, HIV-1; conditions: Table 5, by weight; human PBMC, 6 days
Experimental: Human PBMC are isolated from buffy-coats (obtained from the Stanford Blood Center) by a Ficoll-Paque (Amersham, Piscataway, N.J., USA) density gradient centrifugation according to manufacturer's protocol. Briefly, blood is transferred from the buffy coats in 50 ml conical tubes and diluted with sterile Dulbecco's phosphate buffered saline (Invitrogen/Gibco) to a final volume of 50 ml. Twenty-five ml of the diluted blood are transferred to two 50 ml conical tubes, carefully underlayerd with 12.5 ml of Ficoll-Paque Plus (Amersham Biosciences) and centrifuged at room temperature for 20 min. at 450×g without braking. The white cell layer is carefully transferred to a new 50 ml conical tube and washed twice with PBS. To remove remaining red blood cells, cells are incubated for 5 min. at room temperature with ACK lysis buffer (Biosource) and washed one more time with PBS. PBMC are counted and incubated at a concentration of 2-4×10^6 cells/ml in RPMI1640 containing 10% FCS (Invitrogen/Gibco), 1% penicillin/streptomycin, 2 mM L-glutamine, 1 mM sodium-pyruvate, and 2 μg/ml Phyto-hemagglutinin (Invitrogen) for 24 h at 37° C. […] Virus production is measured at the end of infection by using p24 ELISA (HIV-1 p24 ELISA #NEK050B, Perkin Elmer/NEN) using the sigmoid dose-response model with one binding site in Microsoft Excel Fit (version 3.0.5 Build 12; equation 205; Microsoft).

NL-BAL (R5) = assay: Single-cycle antiviral activity assay (luciferase, JC53-BL cells), NL-BAL; assay type: cell-based, HIV; conditions: Table 3, by weight, pseudotyped virus, 3 day incubation
Experimental: For the production of pseudotyped NL-Bal viruses, plasmid pNL4-3Δenv (HIV pNL4-3 genomic construct with a deletion within the env gene) and pcDNA3.1/NL-BAL env (pcDNA3.1 plasmid containing NL-Bal env gene (obtained from NIBSC Centralized Facility for AIDS Reagents)) were co-transfected into the HEK 293FT cell line (Invitrogen Corp.), cultured in Dulbecco's modified minimum medium (DMEM) containing 10% fetal calf serum (FCS), 100 U/mL Penicillin, 100 μg/mL Streptomycin, 2 mM L-glutamine and 0.5 mg/mL geniticin (all media from Invitrogen/Gibco). The supernatants containing pseudotyped viruses were harvested two days following transfection, and cellular debris was removed by filtration through a […] pore size PES (polyethersulfone) filter (Nalgene) and stored at −80° C. in aliquots. For normalization in assay performance, virus stock aliquots were used to infect JC53-BL (US NIH Aids Reagent Program) cells yielding approximately 1.5×10^5 RLU (relative light units) per well. […] The assay plates were read on a Luminometer (Luminoskan, Thermo Electron Corporation) after 10 minutes of incubation at room temperature. Percent inhibition of luciferase activity was calculated for each dose point after subtracting the background, and IC50 and IC90-values were determined by using XLfit curve fitting software for Excel (version 3.0.5 Build12; Microsoft).

NMTWMEWDREINQYTSLIHSLIEESQNQQEKNEQELL [afp-1]
Antiviral activity NL-BAL IC90 (NL-BAL): —/57.6 ng/mL
Antiviral activity NL-BAL (R5) IC50 (NL-BAL (R5)): 19.6/— ng/mL
